The record followed here is patent US11465965B2, “Double-headed protease inhibitor” (UBE INDUSTRIES, LTD., priority 2017, dated 2022).

In data set [1] the target is T1, Human recombinant enteropeptidase (Homo sapiens, UniProt P98073).
T1 construct: purchased BIO Vision Inc. 7529-50
Kind of data set: Human enteropeptidase inhibition test. It counts as biochemical. The note with it: read-out: Inhibition rate (enteropeptidase); for inhibition at 0.001 µM: compound concentration 1 nM. Summed up:
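Recombinant human enteropeptidase in 50 mM tricine pH 8.0, 0.01% Tween 20, 10 mM CaCl2 cleaving 1.5 μM 5FAM/CPQ2-quenched peptide substrate (stock solution concentration). Fluorescence (ex 485/em 535 nm) read 20 min after enzyme addition; % inhibition versus no-compound and no-enzyme controls.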

The nature of data set [2]: Rat pharmacokinetic (PK) test (plasma concentration after oral administration). The note with it: male, SD.
Experimental: (§1) Each test compound was suspended in a 0.5 W/V % methylcellulose 400 solution to prepare a suspension, and the resulting suspension was orally administered to a male SD rat of 7 to 8-week old (weight: 180 to 250 g). After 0.25, 0.5, 1, 2, 4, 8, and 24 hour(s) of the administration of each test compound, blood (EDTA-added blood) was collected from jugular vein under isoflurane inhalation anesthesia. […] To the resulting blood plasma was added acetonitrile, a mixed solvent of acetonitrile and water (1:1 (V/V)), or a mixed solvent of acetonitrile and 0.1 M hydrochloric acid (1:1 (V/V)), then the resulting mixture was mixed at 750 rpm for 3 minutes in a shaker, and subjected to centrifugal separation at 3700 rpm for 2 minutes in a centrifuge to remove proteins. The resulting sample was subjected to LC (liquid chromatography)/MS (mass spectrometry) measurement under the following measurement conditions.
(§2) Each compound concentration in blood plasma at each time of blood collection was calculated according to the internal standard method, and, area under the plasma concentration vs. time curve (AUCall (Area Under Curve)) was calculated according to the trapezoidal method.
(§3) The LC and MS systems used in the present test are as follows.
(§4) LC: LC20 or LC30 HPLC system manufactured by Shimadzu Corporation
(§5) Column: Phenomenex Kinetex C18 (50×2.1 mm, 2.6 μm)
Column temperature: 40° C.
(§6) Mobile phase A: aqueous solution with 0.1% formic acid, Mobile phase B: 50% acetonitrile/methanol solution with 0.1% formic acid
The target in data set [3] is T2, Human recombinant trypsin (Homo sapiens, UniProt P07477).
T2 construct: purchased Wako Pure Chemical Industries, Ltd. 206-17171
Nature of the data set: Human trypsin inhibition test. It is filed as biochemical. Conditions: 20 minutes after reaction start, read-out: Inhibition rate (trypsin); for inhibition at 0.001 µM: compound concentration 1 nM; for inhibition at 0.01 µM: compound concentration 10 nM; for inhibition at 0.1 µM: compound concentration 100 nM. The essentials: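 Trypsin diluted to 10 ng/mL in 0.1 M Tris-HCl pH8.0, 0.15 M NaCl, 10 mM CaCl2, 0.05% Brij35; substrate solution 40 μM Boc-Phe-Ser-Arg-MCA, compounds in 1% DMSO buffer. Fluorescence (ex 355/em 460 nm) read 20 min after enzyme addition; % inhibition versus no-compound and no-enzyme controls.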

Another data set relates to DIO mouse. Kind of data set: Anti-obesity effect test using DIO mouse. It is filed as in vivo. The note with it: 336 h, DIO mice, vs vehicle group, read-out: Weight loss rate; for inhibition in vivo at 50 mg/kg: oral 50 mg/kg once daily for 2 weeks. Summed up: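 Male C57BL-DIO mice on D-12492 diet, 26 to 28-week old, 5 or 6 per group; compound dosed orally once daily for 2 weeks as 0.5 W/V % methylcellulose suspension, vehicle group on suspension alone. Weight loss rate (%) = (1 − mean final-day weight of treated group / mean final-day weight of vehicle group) × 100.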

For another data set, the system named is HFD-fed mouse. Kind of data set: Fecal protein concentration-increasing test by single administration using HFD-fed mouse. It counts as in vivo. The note with it: 24 h, HFD-fed mice, vs vehicle group, read-out: Ratio for an increase of protein concentration in feces; for response vs control in vivo at 50 mg/kg: single oral dose 50 mg/kg. From the text: (Test Example 3): Fecal Protein Concentration-Increasing Test by Single Administration Using HFD-Fed Mouse
High fat diet-fed (HFD-fed) mice (D-12492 diet, male, ICR, 6 week old) were orally administered with a 0.5 W/V % methylcellulose suspension comprising each test compound (Compound administration group, 4 or 5 mice/group) or a 0.5 W/V % methylcellulose suspension (Compound non-administration group (Vehicle group), 5, 6, or 7 mice/group), and whole feces of the day were collected. Dried feces were dissolved into a 0.5N aqueous sodium hydroxide solution, followed by centrifugation at 3500 rpm. Then each protein concentration in the resulting supernatant was determined (Lowry method), and the ratio for an increase of protein concentration in feces was calculated by the following equation using the protein concentration in feces contained in 1 g of feces (mg/g feces). Ratio for an increase of protein concentration in feces−(average protein concentration in feces of Compound administration group)[…](average protein concentration in feces of Compound non-administration group)

The nature of another data set: in vivo. Conditions: male, SD, rat, po, 10 mg/kg.
Where [4] appears, read: 20 minutes after reaction start.
Where [5] appears, read: compound concentration 10 nM, 20 minutes after reaction start.
The mark [6] stands for this setting: compound concentration 100 nM, 20 minutes after reaction start.

Structures can show the parent of a compound that is named as a salt. Where two headings read alike, the source gives them in different places.

T1 sequence (P98073 whole entry): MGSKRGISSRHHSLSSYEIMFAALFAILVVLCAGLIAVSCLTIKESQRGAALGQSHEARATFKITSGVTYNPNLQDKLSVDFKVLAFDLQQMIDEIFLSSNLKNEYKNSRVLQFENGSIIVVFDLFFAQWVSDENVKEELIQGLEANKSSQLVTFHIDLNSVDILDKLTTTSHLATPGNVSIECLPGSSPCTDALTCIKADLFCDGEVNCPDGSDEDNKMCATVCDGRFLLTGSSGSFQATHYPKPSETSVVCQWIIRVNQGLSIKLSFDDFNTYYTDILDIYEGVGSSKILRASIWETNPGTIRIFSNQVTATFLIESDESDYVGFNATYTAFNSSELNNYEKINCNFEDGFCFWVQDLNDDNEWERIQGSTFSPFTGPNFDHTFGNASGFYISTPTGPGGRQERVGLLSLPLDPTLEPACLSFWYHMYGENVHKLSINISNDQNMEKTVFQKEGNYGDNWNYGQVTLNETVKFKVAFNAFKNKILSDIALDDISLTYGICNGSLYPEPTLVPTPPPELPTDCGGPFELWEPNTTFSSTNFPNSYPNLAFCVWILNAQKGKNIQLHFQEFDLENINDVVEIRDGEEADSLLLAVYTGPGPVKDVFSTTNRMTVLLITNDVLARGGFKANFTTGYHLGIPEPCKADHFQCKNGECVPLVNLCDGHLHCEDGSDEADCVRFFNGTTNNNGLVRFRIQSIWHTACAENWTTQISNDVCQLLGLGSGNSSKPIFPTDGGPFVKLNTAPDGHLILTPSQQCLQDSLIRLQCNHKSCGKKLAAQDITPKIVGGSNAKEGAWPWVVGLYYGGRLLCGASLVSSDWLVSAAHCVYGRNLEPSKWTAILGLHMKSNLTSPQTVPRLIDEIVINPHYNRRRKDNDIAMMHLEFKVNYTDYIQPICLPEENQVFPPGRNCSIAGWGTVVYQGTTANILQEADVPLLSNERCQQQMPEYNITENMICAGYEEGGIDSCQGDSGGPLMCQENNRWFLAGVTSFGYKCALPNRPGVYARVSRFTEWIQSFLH
Experimental for in vivo: as §1, §2, §3, §4, §5
Column temperature: 40° C.
as §6

The term inhibition denotes how much of the control response was suppressed. As a reminder, the AUC is the area under the concentration-time curve, a measure of exposure. The low end stands for low exposure, the high end for high exposure. Regarding `N=C(N)Nc1ccc(C(=O)Oc2ccc(COC(=O)N(Cc3cccc(C(=O)NCCOCCOCCOCCOCCNC(=O)c4cccc(CN(C(=O)OCc5ccc(OC(=O)c6ccc(NC(=N)N)cc6)cc5)[C@@H](CC(=O)O)C(=O)O)c4)c3)[C@@H](CC(=O)O)C(=O)O)cc2)cc1` [17-(b), (2S,2′S)-2,2′-(((5,8,11,14-tetraoxa-2,17-diazaoctadecane-1,18-dioyl)bis(3,1-phenylene))bis(methylene))bis((((4-((4-guanidinobenzoyloxy)benzyloxycarbonyl)azanediyl))disuccinic acid trifluoroacetate], in data set [1], the inhibition at 0.01 µM is at least 50% and the inhibition at 0.1 µM is at least 50%. In addition, the AUC in data set [2] (9 mg/kg) is at most 0.1 µg·h/mL. In addition, in data set [3], the inhibition at 0.001 µM was at least 50%, the inhibition at 0.01 µM was at least 50% and the inhibition at 0.1 µM was at least 50%. For the same compound, the inhibition in vivo at 88 mg/kg in the data set on DIO mouse (oral 88 mg/kg once daily for 2 weeks) was at least 4%. Besides, the response vs control in vivo at 91 mg/kg with HFD-fed mouse (single oral dose 91 mg/kg) is at least 130%.
In the case of `N=C(N)Nc1ccc(C(=O)Oc2ccc(CNS(=O)(=O)N(CCCN([C@@H](CC(=O)O)C(=O)O)S(=O)(=O)NCc3ccc(OC(=O)c4ccc(NC(=N)N)cc4)cc3)[C@@H](CC(=O)O)C(=O)O)cc2)cc1` [7-(b), (2S,2′)-2,2′-propane-1,3-diylbis((N-(4-((4-guanidinobenzoyl)oxy)benzyl)sulfamoyl)azanediyl)disuccinic acid], the inhibition at 0.001 µM in data set [1] (setting [4]) and in data set [3] was at least 50% in each case. Moreover, the inhibition at 0.01 µM in data set [1] (setting [5]) and in data set [3] was at least 50% in each case. For the same compound, the inhibition at 0.1 µM in data set [1] (setting [6]) and in data set [3] was at least 50% each time. The area under the curve (AUC) in data set [2] (10 mg/kg) is at most 0.1 µg·h/mL. In addition, the inhibition in vivo at 100 mg/kg in the data set on DIO mouse (oral 100 mg/kg once daily for 2 weeks) was at least 4%. For the same compound, in the data set with HFD-fed mouse (single oral dose 30 mg/kg), the response vs control in vivo at 30 mg/kg is at least 130%.
For the compound `N=C(N)Nc1ccc(C(=O)Oc2ccc(COC(=O)N(CCOCCOCCOCCOCCN(C(=O)OCc3ccc(OC(=O)c4ccc(NC(=N)N)cc4)cc3)C(CC(=O)O)C(=O)O)C(CC(=O)O)C(=O)O)cc2)cc1` (stereo not drawn) [10-(b), 3,18-bis(((4-((4-guanidinobenzoyl)oxy)benzyl)oxy)carbonyl)-6,9,12,15-tetraoxa-3,18-diazaicosane-1,2,19,20-tetracarboxylic acid trifluoroacetate], the inhibition at 0.01 µM in data set [1] (setting [5]) and in data set [3] was at least 50% in each case. Further, the inhibition at 0.1 µM in data set [1] (setting [6]) and in data set [3] was at least 50% throughout. Moreover, in data set [2] (8 mg/kg), the area under the curve (AUC) is at most 0.1 µg·h/mL. Also, in the data set with DIO mouse (oral 87 mg/kg once daily for 2 weeks), the inhibition in vivo at 87 mg/kg was at least 4%. Besides, the response vs control in vivo at 79 mg/kg in the data set with HFD-fed mouse (single oral dose 79 mg/kg) was at least 130%.
As for `Cl.N=C(N)Nc1ccc2c(c1)CCCOc1c(cccc1C(=O)N(CCOCCOCCN(C(=O)c1cccc3c1OCCCc1cc(NC(=N)N)ccc1C(=O)O3)[C@H](CC(=O)O)C(=O)O)[C@H](CC(=O)O)C(=O)O)OC2=O` [21-(c), (2R,13R)-3,12-bis(10-guanidino-13-oxo-6,7,8,13-tetrahydrodibenzo[b,f][1,4]dioxecin-4-carbonyl)-6,9-dioxa-3,12-diazatetradecane-1,2,13,14-tetracarboxylic acid hydrochloride], the AUC in the data set “in vivo” was at most 0.1 µg·h/mL.
As to `Cl.N=C(N)Nc1ccc2c(c1)CCCOc1c(cccc1C(=O)N(Cc1cc(OCCOCCOc3cc(CN(C(=O)c4cccc5c4OCCCc4cc(NC(=N)N)ccc4C(=O)O5)[C@@H](CC(=O)O)C(=O)O)cc(C(=O)O)c3)cc(C(=O)O)c1)[C@@H](CC(=O)O)C(=O)O)OC2=O` [29-(c), (2S,2′S)-2,2′-(((((oxybis(ethane-2,1-diyl))bis(oxy))bis(3-carboxy-5,1-phenylene))bis(methylene))bis((10-guanidino-13-oxo-6,7,8,13-tetrahydrodibenzo[b,f][1,4]dioxecin-4-carbonyl)azanediyl))disuccinic acid hydrochloride], the inhibition at 0.001 µM in data set [1] (setting [4]) is at least 50%. Moreover, the inhibition at 0.01 µM in data set [1] (setting [5]) is at least 50%. Further, the inhibition at 0.1 µM in data set [1] (setting [6]) and in data set [3] was at least 50% throughout. This compound gave an AUC in data set [2] (10 mg/kg) of at most 0.1 µg·h/mL. Besides, the inhibition in vivo at 50 mg/kg in the data set with DIO mouse was at least 4%. Besides, in the data set with HFD-fed mouse, the response vs control in vivo at 50 mg/kg is at least 130%.
`N=C(N)Nc1ccc2c(c1)CCCOc1c(cccc1C(=O)N(CCOCCN(C(=O)c1cccc3c1OCCCc1cc(NC(=N)N)ccc1C(=O)O3)[C@@H](CC(=O)O)C(=O)O)[C@@H](CC(=O)O)C(=O)O)OC2=O` [26-(b), (2S,2′S)-2,2′-((oxybis(ethane-2,1-diyl))bis((10-guanidino-13-oxo-6,7,8,13-tetrahydrodibenzo[b,f][1,4]dioxecin-4-carbonyl)azanediyl))disuccinic acid]: the inhibition at 0.001 µM in data set [1] (setting [4]) and in data set [3] was at least 50% each time. Moreover, the inhibition at 0.01 µM in data set [1] (setting [5]) and in data set [3] was at least 50% each time. Also, in data set [2] (10 mg/kg), the AUC was at most 0.1 µg·h/mL. Also, the inhibition in vivo at 50 mg/kg in the data set with DIO mouse is at least 4%. In addition, the response vs control in vivo at 50 mg/kg in the data set with HFD-fed mouse is at least 130%.
`N=C(N)Nc1ccc(C(=O)Oc2ccc(CNS(=O)(=O)N(CCOCCN([C@@H](CC(=O)O)C(=O)O)S(=O)(=O)NCc3ccc(OC(=O)c4ccc(NC(=N)N)cc4)cc3)[C@@H](CC(=O)O)C(=O)O)cc2)cc1` [1-(b), (2S,2′S)-2,2′-((oxybis(ethane-2,1-diyl))bis((N-(4-((4-guanidinobenzoyl)oxy)benzyl)sulfamoyl)azanediyl))disuccinic acid]: the inhibition at 0.001 µM in data set [1] (setting [4]) and in data set [3] was at least 50% throughout. In addition, the inhibition at 0.01 µM in data set [1] (setting [5]) and in data set [3] was at least 50% each time. Moreover, the inhibition at 0.1 µM in data set [1] (setting [6]) and in data set [3] was at least 50% each time. For the same compound, in data set [2] (100 mg/kg), the AUC is at most 0.1 µg·h/mL. Also, the inhibition in vivo at 30 mg/kg in the data set on DIO mouse (oral 30 mg/kg once daily for 2 weeks) is at least 4%. The response vs control in vivo at 87 mg/kg with HFD-fed mouse (single oral dose 87 mg/kg) is at least 130%.
`Cl.N=C(N)Nc1ccc2c(c1)CCCOc1c(cccc1C(=O)N(CCOCCOCCN(C(=O)c1cccc3c1OCCCc1cc(NC(=N)N)ccc1C(=O)O3)[C@@H](CC(=O)O)C(=O)O)[C@@H](CC(=O)O)C(=O)O)OC2=O` [20-(c), (2S,13S)-3,12-bis(10-guanidino-13-oxo-6,7,8,13-tetrahydrodibenzo[b,f][1,4]dioxecin-4-carbonyl)-6,9-dioxa-3,12-diazatetradecane-1,2,13,14-tetracarboxylic acid hydrochloride] had an AUC in the data set “in vivo” of at most 0.1 µg·h/mL.
On to `N=C(N)Nc1ccc2c(c1)CCCOc1c(cccc1C(=O)N(Cc1cccc(-c3cccc(CN(C(=O)c4cccc5c4OCCCc4cc(NC(=N)N)ccc4C(=O)O5)[C@@H](CC(=O)O)C(=O)O)c3)c1)[C@@H](CC(=O)O)C(=O)O)OC2=O` [28-(c)], for which the inhibition at 0.001 µM in data set [1] (setting [4]) is at least 50%. Also, the inhibition at 0.01 µM in data set [1] (setting [5]) and in data set [3] was at least 50% each time. For the same compound, the inhibition at 0.1 µM in data set [1] (setting [6]) and in data set [3] was at least 50% in each case. The compound also returned an exposure (AUC) in data set [2] (10 mg/kg) of at most 0.1 µg·h/mL. Further, the inhibition in vivo at 50 mg/kg in the data set on DIO mouse is at least 4%. In addition, the response vs control in vivo at 50 mg/kg in the data set with HFD-fed mouse is at least 130%.
